Test results from paper PMC6395926, “Mass Balance and Drug Interaction Potential of Intravenous Eravacycline Administered to Healthy Subjects” (Antimicrobial Agents and Chemotherapy, 2019).

Key:
[1] = Mass balance study: plasma PK of eravacycline, TP-498 and TP-6208 (LC-MS); assay type: in vivo, human; details: plasma, single i.v. dose of [14C]eravacycline
Source text: (§1) (ii) Study design. This was a single-center, open-label study of a single i.v. dose of [^14C]eravacycline to assess the mass balance recovery and PK of eravacycline. The primary objectives were to determine mass balance recovery, determine routes and rates of excretion, provide metabolite profiling and structural identification, and assess the PK of radioactivity in plasma and whole blood. Subjects were screened for inclusion in the study, including a detailed medical history, physical examination, and laboratory evaluations, in the 28 days before dosing. Eligible subjects were admitted to the clinical study unit at approximately 21:00 on the evening prior to study drug administration (day −1) and remained on site until 240 h postdose for collection of urine, feces, and blood samples. After an overnight fast, each subject received 60 mg [^14C]eravacycline containing not more than 3.8 MBq (105 μCi) ^14C as a single i.v. infusion over 60 min.
(vi) Study assessments. PK parameters were determined for total radioactivity in plasma and whole blood. Eravacycline, TP-498, and TP-6208 concentrations in plasma were quantified using a validated assay with internal standards. The following PK parameters were determined: Cmax, Tmax, time from dosing before the first quantifiable concentration in a concentration versus time profile (Tlag), AUC0–t, AUC0–24, AUC0–∞, the percentage of AUC0–∞ extrapolated beyond the time of the last measurable concentration (AUC%extrap), the slope of the apparent terminal phase (lambda-z), the apparent terminal half-life (t1/2), the mean residence time estimated between time zero and infinity (MRT0-∞), the apparent volume of plasma cleared of analyte per unit time (CL), and the volume of distribution of analyte at steady state (Vss).
Plasma concentrations of eravacycline, TP-498, and TP-6208 were measured by liquid chromatography with tandem mass spectrometry (LC-MS). The LLOQ was 5 ng/ml for eravacycline, TP-498, and TP-6208. The calibration ranges for eravacycline, TP-498, and TP-6208 in human urine were 50 to 10,000 ng/ml, 50 to 1,000 ng/ml, and 20 to 1,000 ng/ml, respectively. The calibration ranges for eravacycline, TP-498, and TP-6208 in human plasma were 5 to 500 ng/ml.
(§2) (viii) Study analysis. Descriptive statistics (mean, median, standard deviation [SD], percent coefficient of variation [%CV], minimum, maximum, number, geometric mean, and geometric %CV) were calculated for all concentration data. Pharmacokinetic parameters were calculated using Phoenix WinNonlin v6.3 (Certera USA, Inc.).

[2] = parameters: method as in PMID 30150464; details: healthy volunteers, i.v. 1 mg/kg q12h for 10 days; cited from earlier work
[3] = Mass balance study: PK of total radioactivity in whole blood and plasma; assay type: in vivo, human; details: for Cmax, total radioactivity: geometric mean (%CV), n = 5
Source text: as §1
(iv) Determination of radioactivity. […] Plasma and whole-blood concentrations of total radioactivity were determined using an analytical method at Quotient Bioresearch (Rushden, Northamptonshire, UK). The lower limit of quantification (LLOQ) for total radioactivity was 11 to 13 ng equivalents (equiv)/ml in plasma and 41 to 46 ng equiv/g in whole blood.
(vi) Study assessments. PK parameters were determined for total radioactivity in plasma and whole blood. Eravacycline, TP-498, and TP-6208 concentrations in plasma were quantified using a validated assay with internal standards. […]
as §2

[4] = human, iv, 60 mg, geometric mean (%CV), n = 2

clearance [1, 4]: 228 ± 13.8 mL/min
half-life [1, 4]: 18.2 ± 5 h
MRT inf ([1]; human, iv, 60 mg, geometric mean (%CV), n = 2, read-out: MRT0-∞): 15.9 ± 8.9 h
CL renal ([1]; human, iv, 60 mg, geometric mean (%CV), n = 5): 41.9 ± 16.6 mL/min
Tmax ([1]; male, human, iv, 60 mg): 0.55 to 1 h
AUC(0-inf) ([1]; male, human, iv, 60 mg, geometric mean (%CV), n = 2): 4380 ng·h/mL
Cmax ([1]; male, human, iv, 60 mg, geometric mean (%CV), n = 5, read-out: Cmax): 1100 ng/mL
Vd ([1]; male, human, iv, 60 mg, geometric mean (%CV), n = 2, read-out: Vss (volume of distribution)): 217 ± 4.9 L
time postdose plasma concentrations were quantifiable [1]: approximately 73 h
Cmax, total radioactivity ([3]; plasma): 893 (18.0) ng equiv/ml
time postdose total radioactivity remained quantifiable ([3]; plasma, majority of subjects): up to 241 h
Cmax, total radioactivity ([3]; whole blood): 911 (14.5) ng equiv/ml
SMILES: CN(C)[C@@H]1C(O)=C(C(N)=O)C(=O)[C@@]2(O)C(O)=C3C(=O)c4c(O)c(NC(=O)CN5CCCC5)cc(F)c4C[C@H]3C[C@@H]12 [eravacycline]
AUC0–12 [2]: 6,309 ng·h/ml
clearance (CL) [2]: 2.67 mL/min/kg
mean peak plasma concentration (Cmax) [2]: 1,825 ng/ml
volume of distribution at steady state (Vss) [2]: 4.0 L/kg
